Experimental data from PubChem BioAssay AID330 (DTP/NCI, 2004).
“And” between values parts separate entries of the source, which are not always exact repeats. Identical values can stand only once. Toxic doses and inconclusive results are not listed. How the source made its calls: active means survival T/C of 150% or more; inactive means T/C below 125% in these data. Peptide text beside a SMILES is read from it. * marks the point of attachment. Cbz = O=C(OCc1ccccc1)*

Tested on: P388 leukemia ip, CD2F1 mice, survival T/C
Experiment: NCI In Vivo Anticancer Drug Screen. Data for tumor model P388 Leukemia (intraperitoneal) in CD2F1 (CDF1) mice
Conditions: endpoint: median survival time, higher = longer survival
Method in brief: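 Mice carrying the transplanted tumor received test compound or vehicle. Survival was recorded in each group, and the value is the treated-group measurement divided by that of the vehicle-treated control group.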

[1] = dose: 50.0 mg/kg/injection, schedule: Q01DX005 (ip), vehicle: saline with Tween-80
[2] = dose: 12.5 mg/kg/injection, schedule: Q01DX009 (ip), vehicle: saline with Tween-80
[3] = dose: 25.0 mg/kg/injection, schedule: Q01DX009 (ip), vehicle: saline with Tween-80
[4] = dose: 50.0 mg/kg/injection, schedule: Q01DX009 (ip), vehicle: saline with Tween-80
[5] = dose: 100.0 mg/kg/injection, schedule: Q01DX009 (ip), vehicle: saline with Tween-80
[6] = dose: 200.0 mg/kg/injection, schedule: Q01DX009 (ip), vehicle: saline with Tween-80
[7] = dose: 50.0 mg/kg/injection, schedule: Q01DX005 (ip), vehicle: saline
[8] = dose: 100.0 mg/kg/injection, schedule: Q01DX005 (ip), vehicle: saline
[9] = dose: 200.0 mg/kg/injection, schedule: Q01DX005 (ip), vehicle: saline

Measured: T/C

COc1ccc(C(=O)Cc2nc3nnc(N)n3[nH]c2=O)cc1
inactive: dose: 60.0 mg/kg/injection, schedule: Q01DX005 (ip), vehicle: saline 99 % of control | dose: 120.0 mg/kg/injection, schedule: Q01DX005 (ip), vehicle: saline 104 % of control | dose: 240.0 mg/kg/injection, schedule: Q01DX005 (ip), vehicle: saline 103 % of control

Cc1ccc([Se](=C(C(=O)c2ccccc2)C(=O)c2ccccc2)c2ccc(C)cc2)cc1
inactive: dose: 50.0 mg/kg/injection, schedule: Q01DX009 (ip), vehicle: saline 104 % of control | dose: 100.0 mg/kg/injection, schedule: Q01DX009 (ip), vehicle: saline 100 % of control | dose: 200.0 mg/kg/injection, schedule: Q01DX009 (ip), vehicle: saline 104 % of control

CC(=O)Nc1nnc(-c2coc3ccc(C)cc3c2=O)s1
inactive: dose: 6.25 mg/kg/injection, schedule: Q01DX005 (ip), vehicle: saline with Tween-80 99 % of control | dose: 12.5 mg/kg/injection, schedule: Q01DX005 (ip), vehicle: saline with Tween-80 88 % of control and 89 % of control | dose: 25.0 mg/kg/injection, schedule: Q01DX005 (ip), vehicle: saline with Tween-80 86 % of control | [1] 86 % of control

Cc1cc(=O)oc2ccc(C(=O)/C=C/N(C)C)c(O)c12
inactive: dose: 60.0 mg/kg/injection, schedule: Q01DX005 (ip), vehicle: saline with Tween-80 96 % of control | dose: 120.0 mg/kg/injection, schedule: Q01DX005 (ip), vehicle: saline with Tween-80 92 % of control | dose: 240.0 mg/kg/injection, schedule: Q01DX005 (ip), vehicle: saline with Tween-80 89 % of control

COCCCn1c(C(Cl)(Cl)Cl)nn2c(=O)c3ccccc3nc2c1=O
inactive: dose: 6.25 mg/kg/injection, schedule: Q01DX009 (ip), vehicle: saline with Tween-80 96 % of control | [2] 91 % of control | [3] 100 % of control

C(=NCCN=Cc1ccc2c(c1)OCO2)c1ccc2c(c1)OCO2
inactive: [3] 93 % of control | [4] 92 % of control | [5] 99 % of control | [6] 100 % of control

COC(=O)c1c(C(=O)OC)c(-c2ccc(Cl)c(Cl)c2)n2c1CCC2
inactive: [5] 87 % of control | [6] 89 % of control | dose: 400.0 mg/kg/injection, schedule: Q01DX009 (ip), vehicle: saline with Tween-80 88 % of control

CCCCOc1ccc(Nc2c3ccccc3nc3ccccc23)cc1
inactive: [2] 98 % of control and 91 % of control | [3] 98 % of control and 106 % of control | [4] 121 % of control

CCN(CC)C(=O)C(C)C1=NS(=O)(=O)c2ccccc21 (stereo not given)
inactive: dose: 75.0 mg/kg/injection, schedule: Q04DX003 (ip), vehicle: Klucel (hydroxypropylcellulose) (HPC) 101 % of control | dose: 150.0 mg/kg/injection, schedule: Q04DX003 (ip), vehicle: Klucel (hydroxypropylcellulose) (HPC) 99 % of control | dose: 300.0 mg/kg/injection, schedule: Q04DX003 (ip), vehicle: Klucel (hydroxypropylcellulose) (HPC) 100 % of control

COc1cc(/C=C/C(N)=O)cc(OC)c1OC
inactive: dose: 50.0 mg/kg/injection, schedule: Q04DX003 (ip), vehicle: saline with Tween-80 94 % of control | dose: 100.0 mg/kg/injection, schedule: Q04DX003 (ip), vehicle: saline with Tween-80 90 % of control | dose: 200.0 mg/kg/injection, schedule: Q04DX003 (ip), vehicle: saline with Tween-80 99 % of control | dose: 400.0 mg/kg/injection, schedule: Q04DX003 (ip), vehicle: saline with Tween-80 100 % of control

Cc1cn(C2CC(O)C(CNC(=O)CCl)O2)c(=O)[nH]c1=O (stereo not given)
inactive: [7] 105 % of control | [8] 98 % of control | [9] 109 % of control

C=C(C1OC2OC(C)(C)OC2C1OC)P(=O)(OC(C)C)OC(C)C (stereo not given)
inactive: dose: 100.0 mg/kg/injection, schedule: Q04DX002 (ip), vehicle: saline with Tween-80 98 % of control | dose: 200.0 mg/kg/injection, schedule: Q04DX002 (ip), vehicle: saline with Tween-80 98 % of control

CCC(CC)CS(=O)(=O)OCCCCOS(=O)(=O)CC(CC)CC
inactive: [7] 99 % of control | [8] 107 % of control | [9] 111 % of control

CC(=O)N1C=CC(=C2C=CN(C(C)=O)C=C2)C=C1
inactive: dose: 5.0 mg/kg/injection, schedule: Q01DX009 (ip), vehicle: saline 100 % of control | dose: 10.0 mg/kg/injection, schedule: Q01DX009 (ip), vehicle: saline 88 % of control | dose: 20.0 mg/kg/injection, schedule: Q01DX009 (ip), vehicle: saline 103 % of control

Cc1c2c(c(C)c3c1[nH]c1ccccc13)C(C#N)N(C(=O)c1ccccc1)C=C2 (stereo not given)
inactive: dose: 6.25 mg/kg/injection, schedule: Q04DX003 (ip), vehicle: distilled water + Tween-80 100 % of control | dose: 12.5 mg/kg/injection, schedule: Q04DX003 (ip), vehicle: distilled water + Tween-80 102 % of control | dose: 25.0 mg/kg/injection, schedule: Q04DX003 (ip), vehicle: distilled water + Tween-80 90 % of control | dose: 50.0 mg/kg/injection, schedule: Q04DX003 (ip), vehicle: distilled water + Tween-80 88 % of control | dose: 100.0 mg/kg/injection, schedule: Q04DX003 (ip), vehicle: distilled water + Tween-80 90 % of control | dose: 200.0 mg/kg/injection, schedule: Q04DX003 (ip), vehicle: distilled water + Tween-80 94 % of control

COc1ccc2c(c1O)-c1c(O)c(OC)cc3c1[C@H](C2)[N+](C)(C)CC3
inactive: dose: 12.5 mg/kg/injection, schedule: Q04DX003 (ip), vehicle: saline 109 % of control | dose: 25.0 mg/kg/injection, schedule: Q04DX003 (ip), vehicle: saline 114 % of control | dose: 50.0 mg/kg/injection, schedule: Q04DX003 (ip), vehicle: saline 98 % of control and 109 % of control | dose: 100.0 mg/kg/injection, schedule: Q04DX003 (ip), vehicle: saline 113 % of control

Cc1ccc(S(=O)(=O)OC[C@@H]2CCCC[C@H]2COS(=O)(=O)c2ccc(C)cc2)cc1
inactive: dose: 100.0 mg/kg/injection, schedule: Q01DX009 (ip), vehicle: Klucel (hydroxypropylcellulose) (HPC) 98 % of control | dose: 200.0 mg/kg/injection, schedule: Q01DX009 (ip), vehicle: Klucel (hydroxypropylcellulose) (HPC) 98 % of control | dose: 400.0 mg/kg/injection, schedule: Q01DX009 (ip), vehicle: Klucel (hydroxypropylcellulose) (HPC) 98 % of control

O=C(NC(Cc1ccccc1)C(=O)NC(Cc1ccc(O)cc1)C(=O)O)OCc1ccccc1 (stereo not drawn) (Cbz-Phe-Tyr-OH; configuration not given here)
inactive: dose: 50.0 mg/kg/injection, schedule: Q01DX005 (ip), vehicle: saline + Tween-80 + alcohol 97 % of control | dose: 100.0 mg/kg/injection, schedule: Q01DX005 (ip), vehicle: saline + Tween-80 + alcohol 95 % of control | dose: 200.0 mg/kg/injection, schedule: Q01DX005 (ip), vehicle: saline + Tween-80 + alcohol 96 % of control

CCOC(=O)/N=C(/NC(=O)OCC)N1CCN(c2ccnc3cc(Cl)ccc23)CC1
inactive: [1] 98 % of control | dose: 100.0 mg/kg/injection, schedule: Q01DX005 (ip), vehicle: saline with Tween-80 97 % of control | dose: 200.0 mg/kg/injection, schedule: Q01DX005 (ip), vehicle: saline with Tween-80 91 % of control

CCOC(=O)/C=C(\C)Sc1cc(O)c2ccccc2c1O
inactive: [2] 119 % of control | [4] 108 % of control

CCN1CCn2c(c(COC(=O)NC(C)C)c(COC(=O)NC(C)C)c2-c2ccc(Cl)c(Cl)c2)C1
inactive: dose: 6.25 mg/kg/injection, schedule: Q01DX009 (ip), vehicle: distilled water + Tween-80 116 % of control | dose: 12.5 mg/kg/injection, schedule: Q01DX009 (ip), vehicle: distilled water + Tween-80 122 % of control | dose: 18.8 mg/kg/injection, schedule: Q01DX009 (ip), vehicle: distilled water + Tween-80 97 % of control | dose: 25.0 mg/kg/injection, schedule: Q01DX009 (ip), vehicle: distilled water + Tween-80 116 % of control | dose: 37.5 mg/kg/injection, schedule: Q01DX009 (ip), vehicle: distilled water + Tween-80 114 % of control
